This is an account of results in patent US10654824B2, “2-azabicyclo[3.1.0]hexan-3-one derivatives and methods of use” (Genentech, Inc., priority 2016, dated 2020).

In one data set the target is T1, NIK (Homo sapiens, UniProt Q99558).
T1 construct: made in house; host or cells: baculovirus-infected insect cells
Put plainly: NIK enzyme inhibition assay (Transcreener ADP, fluorescence polarization). It is filed as biochemical. As to conditions: for NIK enzyme inhibition, rank among the 4 stereoisomers: in words, four separated stereoisomers of Example 1. How it is done: The ability of the nuclear factor-kappa B (NF-kB)-inducing kinase (NIK) to catalyze the hydrolysis of adenosine-5′-triphosphate (ATP) was monitored using the Transcreener ADP (adenosine-5′-diphosphate) assay (BellBrook Labs). Purified NIK (0.5 nM) derived from a baculovirus-infected insect cell expression system was incubated with test compounds for 1-3.5 hours in 50 mM 2-[4-(2-hydroxyethyDpiperazin-1-yl]ethanesulfonic acid buffer (pH 7.2) containing 10 mM MgCl2, 2 mM dithiothreitol, 10 μM ATP, 0.01% Triton X-100, 0.1% gamma-globulins from bovine blood, 1% dimethylsulfoxide (DMSO), 7 μg/mL ADP antibody and 5 nM ADP-MR121 633 tracer. Reactions were quenched by the addition of 20 mM 2,2′,2″, 2″′-(ethane-1,2-diyldinitrilo)tetraacetic acid and 0.01% Brij 35. The tracer bound to the antibody was displaced by the ADP generated during the NIK reaction, which causes a decrease in fluorescence polarization that was measured by laser excitation at 633 nm with a Fluorescence Correlation Spectroscopy Plus reader (Evotec AG). Equilibrium dissociation constant (Ki) values for NIK inhibitors are calculated from plots of activity vs. inhibitor concentration using Morrison's quadratic equation that accounts for the potential of tight binding, and by also applying the conversion factor that accounted for competitive inhibition and the concentration of substrate used in the assay relative to its Michaelis constant (Km).

Data set [1] deals with REL-A (p65) nuclear translocation, classical NF-kB signaling, HUVEC. Put plainly: REL-A HUVEC nuclear translocation assay. It is filed as cell-based. The settings on record: Homo sapiens, TNF-α 2 ng/mL stimulation. How it is done:
(§1) (2) A second set of cell assays used primary human umbilical vein cells (HUVEC) sourced from Lonza to define the selectivity of NIK inhibitors toward inhibition of classical vs. non-classical NF-kB signaling using high content cellular imaging. For the p52 (non-classical NF-kB signaling) nuclear translocation assay, HUVEC were treated with different concentrations of compounds (0.2% DMSO final) in EBM-2 medium (LONZA) containing 2% fetal bovine serum and then stimulated with 300 ng/mL of an anti-lymphotoxin beta receptor antibody (R&D Systems) for 4.5 hours. In the REL-A nuclear translocation assay, HUVEC were incubated with compounds (0.2% DMSO final) for 4 hours 50 minutes in EBM-2 medium containing 2% fetal bovine serum before stimulating them with 2 ng/mL tumor necrosis factor (TNF)-α (R&D Systems) for 10 minutes. Cells were fixed with 4% paraformaldehyde, permeabilized by adding 0.1% Triton X-100 in phosphate buffered saline, and then were incubated with either 2 μg/mL anti-p52 antibody (Millipore) or 400 ng/mL anti-REL-A (p65) antibody (Santa Cruz Biotechnology). […] Imaging was carried out using an Opera reader (Perkin Elmer) and data were analyzed with the aid of Acapella software (Perkin Elmer). The p52 or REL-A translocation into the nucleus was quantified by the ratio of the nuclear to cytoplasmic signal intensity.

Data set [2] relates to p52 nuclear translocation, non-classical NF-kB signaling, HUVEC. Kind of data set: p52 HUVEC nuclear translocation assay. It is filed as cell-based. The settings on record: Homo sapiens, anti-lymphotoxin beta receptor antibody 300 ng/mL. Here is the method:
as §1

A short description of data set [3]: Liver microsome stability. It is filed as in vitro ADME, human. Here is the method: General. Metabolic stability assays in liver microsomes are conducted with pooled female CD-1 mouse, male Sprague-Dawley rat, male beagle dog, male cynomolgus monkey, and mixed male and female human liver microsomal incubations. The general assay conditions are as follows. Incubation mixtures consisted of liver microsomes (0.5 mg of microsomal protein/ml) and the test compound (1.0 μM) with or without NADPH (1.0 mM) in the potassium phosphate buffer (100 mM; pH 7.4) with a final incubation volume of 0.25 ml. Reactions are initiated by the addition of NADPH or buffer and shaken in a water bath open to the air at 37° C. At times 0, 20, 40, and 60 min, aliquots (50 μl) are removed and added to termination mixtures (100 μl) containing acetonitrile and an internal standard. The samples are then centrifuged for 10 min at 2000 g. The supernatant (90 μl) is removed, combined with 180 μl of water, and analyzed by LC-MS/MS.
Metabolic stability of the test compounds were evaluated in human liver microsomes following known protocols described in Halladay, et al. Drug Metabol. Lett. 2007, 1:67-72.

A further data set is described as follows: Hepatocyte stability. The data set is classed as in vitro ADME, human. How it is done: General. Metabolic stability assays in hepatocytes are conducted using cryopreserved pooled female CD-1 mouse, male Sprague-Dawley rat, male beagle dog, male cynomolgus monkey, and mixed male and female human hepatocytes (CellzDirect). Vials of hepatocytes are thawed rapidly in a water bath set at 37° C. and then are diluted with Dulbecco's modified Eagle's medium (DMEM), pH 7.4. Cells are isolated by centrifugation, pooled, and resuspended in DMEM at 1.0 million viable cells/ml. Membrane integrity of the cells is assessed by trypan blue exclusion. The test compound is dissolved in dimethyl sulfoxide at a final concentration of […]. This test compound stock is diluted further to 2 μM in DMEM (125 μl) before the addition of an equal volume of the 10^6 cells/ml cell suspension. The test compound (final incubation concentration of 1.0 μM with 0.1% dimethyl sulfoxide) and cells (final concentration of 0.5×10^6 cells/ml) are incubated at 37° C. in a 95% air/5% CO2 atmosphere for 3 h. Aliquots (50 μl) are removed at 0, 1, 2, and 3 hours and added to termination mixtures (100 μl) containing acetonitrile and an internal standard. […] The supernatant (90 μl) is removed, combined with 180 μof water, and analyzed by LC-MS/MS.
Metabolic stability of the test compounds were evaluated also in human hepatocytes, following protocols described in Hallifax, et al. Drug Metabol. […]

Entries after “also recorded” stand apart in the source; their conditions may differ.

T1 sequence (Q99558 whole entry): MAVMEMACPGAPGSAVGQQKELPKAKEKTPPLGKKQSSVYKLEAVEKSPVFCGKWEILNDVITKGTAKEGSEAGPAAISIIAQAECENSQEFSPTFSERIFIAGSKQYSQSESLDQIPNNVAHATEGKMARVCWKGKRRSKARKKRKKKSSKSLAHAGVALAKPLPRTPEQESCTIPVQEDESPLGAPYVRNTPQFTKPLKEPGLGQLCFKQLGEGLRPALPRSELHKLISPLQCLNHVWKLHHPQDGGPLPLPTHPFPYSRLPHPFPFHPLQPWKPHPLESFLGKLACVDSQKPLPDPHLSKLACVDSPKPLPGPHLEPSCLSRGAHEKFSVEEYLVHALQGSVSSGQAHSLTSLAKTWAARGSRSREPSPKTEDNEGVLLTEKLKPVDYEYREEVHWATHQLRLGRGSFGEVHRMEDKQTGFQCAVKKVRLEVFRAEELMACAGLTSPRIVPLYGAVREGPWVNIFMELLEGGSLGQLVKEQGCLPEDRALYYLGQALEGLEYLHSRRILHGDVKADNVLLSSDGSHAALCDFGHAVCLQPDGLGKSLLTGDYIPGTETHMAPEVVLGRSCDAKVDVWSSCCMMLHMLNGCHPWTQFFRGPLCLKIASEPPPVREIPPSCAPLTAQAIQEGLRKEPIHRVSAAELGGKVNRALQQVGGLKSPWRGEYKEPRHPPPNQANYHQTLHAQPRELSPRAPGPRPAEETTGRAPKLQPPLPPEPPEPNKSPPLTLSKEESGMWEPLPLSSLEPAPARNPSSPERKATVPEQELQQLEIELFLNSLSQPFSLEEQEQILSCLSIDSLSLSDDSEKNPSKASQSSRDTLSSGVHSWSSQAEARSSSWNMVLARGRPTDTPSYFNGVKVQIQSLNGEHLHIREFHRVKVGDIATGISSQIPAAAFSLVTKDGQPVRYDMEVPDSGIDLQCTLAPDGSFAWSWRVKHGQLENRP

In the case of `CN1C(=O)[C@](O)(C#Cc2cccc(-c3cccc(C(N)=O)n3)c2)[C@@H]2C[C@@H]21` (single isomer, unassigned), the “NIK enzyme inhibition, rank among the 4 stereoisomers” value (“NIK enzyme inhibition” for short) on NIK was “second most potent NIK enzyme inhibitor among the 4 stereoisomers”.

In general, IC50 refers to the concentration that inhibits the measured activity by half. Higher therefore signals lower potency. One may read the Ki as the equilibrium dissociation constant of an inhibitor or competing ligand from its target. Take `CN1C(=O)[C@](O)(C#Cc2cccc(-c3cccc(C(N)=O)n3)c2)[C@H]2C[C@H]21` (single isomer, unassigned) [Compound 1]: the half-maximal inhibitory concentration (IC50) in data set [1] was over 5000 nM; in data set [2], 93 nM. Moreover, in data set [3] (human liver microsomes), the “HLM CL (human liver microsome clearance)” value turned out to be 1.2 mL/min/kg. The “stability in human liver microsomes compared with the respective pyrrolidinone comparator compound” value in data set [3] (in words, versus comparators C-1, C-3, C-4, C-5, C-6) is given as “lower clearance; also recorded: better stability”. Besides, the “NIK enzyme inhibition” value on NIK was “most potent NIK enzyme inhibitor among the 4 stereoisomers”. For the same molecule, the Ki at NIK (purified NIK 0.5 nM, 10 μM ATP, read-out: NIK ADP-FP Ki) came out at 0.4 nM. The “Hep CL (human hepatocyte clearance)” value in “Hepatocyte stability” (human hepatocytes) is recorded as 4.1 mL/min/kg. Also, in the data set “Hepatocyte stability” (in words, versus comparators C-1, C-3, C-5), the “stability in the human hepatocyte assay compared with the corresponding comparator compound” value is “better stability”.

On to `CN1C(=O)[C@@](O)(C#Cc2cccc(-c3cccc(C(N)=O)n3)c2)[C@@H]2C[C@@H]21` (single isomer, unassigned), for which the “NIK enzyme inhibition” value at NIK is recorded as “no measurable inhibition”.

`CN1C(=O)[C@@](O)(C#Cc2cccc(-c3cccc(C(N)=O)n3)c2)[C@H]2C[C@H]21` (single isomer, unassigned): on NIK, the “NIK enzyme inhibition” value is recorded as “third most potent NIK enzyme inhibitor among the 4 stereoisomers”.
